# Measured values reported in ChEMBL document CHEMBL1201862, “PubChem BioAssay data set” (2004).
# The source made the active and inactive calls. For most assays here, no stated cut-off is given here; in the data, actives have a measured EC50 and inactives only a lower limit.
# What was measured:
# Streptococcus = assay: GAS UMAA2166 growth inhibition – luminescence, BacTiterGlo, counter-screen for streptokinase expression inhibitor project, dose response (AID 1915); assay type: functional, organism-based;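 further: potency for reduction of bacterial viability or growth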
# [1] = test system: Streptococcus sp. 'group A'; assay: Streptococcus pyogenes SK(-)GAS viability under kanamycin – luminescence, BacTiterGlo, confirmation, counter-screen for streptokinase expression inhibitor project, dose response (AID 1900); assay type: functional, organism-based
# [2] = Trypanosoma cruzi growth suppression in host cells – NIH3T3 host cells, beta-gal luminescence, confirmation (AID 2044); assay type: functional, cell-based;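 further: intracellular parasites grown in NIH/3T3 mouse fibroblasts as host cells; luminescent beta-galactosidase reporter signal from transgenic T. cruzi replicating inside host cells; inhibitors lower the luminescence signal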
# [3] = NIH3T3 cell viability loss – ATP luminescence, mouse fibroblasts, counter-screen, dose response (AID 2010); assay type: functional, cell-based;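 further: cells exposed to compound for about 90 hours before reading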
# [4] = biological target: T1, Heat shock factor protein 1 (Mus musculus, UniProt P38532); assay: decrease of HSF1-responsive luciferase luminescence – cell-based, NIH3T3, dose retest, confirmation (AID 2382); assay type: functional;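 further: NIH3T3 fibroblasts with HSF1-driven luciferase reporter stressed by proteasome inhibitor MG132; luminescence from HSF1-driven luciferase expression after 8 hours of MG132 stress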
# T1 sequence (P38532 whole entry): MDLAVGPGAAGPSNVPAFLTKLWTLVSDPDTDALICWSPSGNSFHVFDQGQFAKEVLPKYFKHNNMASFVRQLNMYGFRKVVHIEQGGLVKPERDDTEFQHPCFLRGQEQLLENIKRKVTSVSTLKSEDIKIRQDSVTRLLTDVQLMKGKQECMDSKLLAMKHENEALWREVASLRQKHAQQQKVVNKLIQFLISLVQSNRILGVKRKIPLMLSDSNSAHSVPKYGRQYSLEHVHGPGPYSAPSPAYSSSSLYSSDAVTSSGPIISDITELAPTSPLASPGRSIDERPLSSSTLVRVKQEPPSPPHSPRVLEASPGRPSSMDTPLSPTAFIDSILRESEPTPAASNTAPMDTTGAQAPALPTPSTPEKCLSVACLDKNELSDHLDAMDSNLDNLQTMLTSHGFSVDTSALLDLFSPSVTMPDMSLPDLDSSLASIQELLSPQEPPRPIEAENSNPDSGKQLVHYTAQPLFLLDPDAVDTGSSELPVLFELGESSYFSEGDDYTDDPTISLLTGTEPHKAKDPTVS
# Cytochrome P450 2D6 = Cytochrome P450 2D6 (Homo sapiens, UniProt P10635);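 further: CYP2D6 member of a cytochrome P450 panel assay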
# Cytochrome P450 2D6, sequence (P10635 whole entry): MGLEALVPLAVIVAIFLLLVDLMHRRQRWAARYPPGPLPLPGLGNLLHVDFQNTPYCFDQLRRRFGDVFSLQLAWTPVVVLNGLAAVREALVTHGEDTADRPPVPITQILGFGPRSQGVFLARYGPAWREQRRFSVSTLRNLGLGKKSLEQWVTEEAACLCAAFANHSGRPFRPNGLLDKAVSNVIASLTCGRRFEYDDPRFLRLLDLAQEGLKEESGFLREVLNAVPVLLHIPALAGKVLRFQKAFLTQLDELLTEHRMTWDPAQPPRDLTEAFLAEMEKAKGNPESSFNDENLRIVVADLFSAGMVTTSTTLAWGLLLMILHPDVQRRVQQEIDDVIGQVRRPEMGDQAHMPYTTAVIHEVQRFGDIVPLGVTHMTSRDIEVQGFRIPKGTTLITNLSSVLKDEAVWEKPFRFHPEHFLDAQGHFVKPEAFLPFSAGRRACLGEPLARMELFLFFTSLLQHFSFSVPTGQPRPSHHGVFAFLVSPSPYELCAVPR
# Cytochrome P450 1A2 = biological target: T2, Cytochrome P450 1A2 (Homo sapiens, UniProt P05177);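 further: PubChem cytochrome P450 panel assay, CYP1A2 panel member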
# T2 sequence (P05177 whole entry): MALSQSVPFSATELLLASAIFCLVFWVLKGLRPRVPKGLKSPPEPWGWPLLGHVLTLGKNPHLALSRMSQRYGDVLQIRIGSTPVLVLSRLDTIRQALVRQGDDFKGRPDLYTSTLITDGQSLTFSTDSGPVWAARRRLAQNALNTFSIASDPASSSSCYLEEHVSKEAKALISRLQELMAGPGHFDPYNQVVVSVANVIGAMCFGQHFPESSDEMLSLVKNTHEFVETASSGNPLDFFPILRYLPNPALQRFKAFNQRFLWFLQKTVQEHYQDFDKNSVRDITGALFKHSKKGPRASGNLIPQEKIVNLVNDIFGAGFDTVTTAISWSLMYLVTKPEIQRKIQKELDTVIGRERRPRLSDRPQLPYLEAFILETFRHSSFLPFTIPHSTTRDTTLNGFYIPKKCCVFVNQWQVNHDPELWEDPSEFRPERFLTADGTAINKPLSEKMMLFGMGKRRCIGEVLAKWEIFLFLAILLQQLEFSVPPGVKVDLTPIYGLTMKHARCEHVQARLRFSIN
# Streptokinase A = biological target: T3, Streptokinase A (Streptococcus pyogenes serotype M1, UniProt P10520); assay: viability-normalized secreted streptokinase activity reduction – plasminogen activation absorbance, OD405, dose response (AID 1914); assay type: functional, Streptococcus pyogenes M1 GAS;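 further: secreted streptokinase activity via plasminogen activation per viability signal from cell pellet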
# T3 sequence (P10520 whole entry): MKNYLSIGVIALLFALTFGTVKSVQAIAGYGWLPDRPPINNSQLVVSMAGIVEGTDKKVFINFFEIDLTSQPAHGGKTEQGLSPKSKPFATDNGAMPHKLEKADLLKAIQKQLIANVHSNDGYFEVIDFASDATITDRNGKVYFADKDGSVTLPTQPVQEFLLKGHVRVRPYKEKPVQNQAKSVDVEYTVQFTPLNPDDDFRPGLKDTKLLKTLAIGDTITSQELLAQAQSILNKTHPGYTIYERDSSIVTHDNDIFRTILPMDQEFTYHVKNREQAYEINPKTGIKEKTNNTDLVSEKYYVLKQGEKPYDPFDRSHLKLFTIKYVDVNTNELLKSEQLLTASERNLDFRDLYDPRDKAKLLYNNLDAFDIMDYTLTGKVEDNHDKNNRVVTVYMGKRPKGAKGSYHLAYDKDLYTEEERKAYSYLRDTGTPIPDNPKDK
# Paired box protein Pax-8 = Paired box protein Pax-8 (Homo sapiens, UniProt Q06710); assay: PAX8 transcriptional activity inhibition in RMG-I – RMG-I cells, luciferase, cherry-pick, dose response (AID 687027); assay type: functional, cell-based;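 further: luciferase reporter driven by Pax8 target thyroperoxidase promoter measured by SteadyGlo luminescence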
# Paired box protein Pax-8, sequence (Q06710 whole entry): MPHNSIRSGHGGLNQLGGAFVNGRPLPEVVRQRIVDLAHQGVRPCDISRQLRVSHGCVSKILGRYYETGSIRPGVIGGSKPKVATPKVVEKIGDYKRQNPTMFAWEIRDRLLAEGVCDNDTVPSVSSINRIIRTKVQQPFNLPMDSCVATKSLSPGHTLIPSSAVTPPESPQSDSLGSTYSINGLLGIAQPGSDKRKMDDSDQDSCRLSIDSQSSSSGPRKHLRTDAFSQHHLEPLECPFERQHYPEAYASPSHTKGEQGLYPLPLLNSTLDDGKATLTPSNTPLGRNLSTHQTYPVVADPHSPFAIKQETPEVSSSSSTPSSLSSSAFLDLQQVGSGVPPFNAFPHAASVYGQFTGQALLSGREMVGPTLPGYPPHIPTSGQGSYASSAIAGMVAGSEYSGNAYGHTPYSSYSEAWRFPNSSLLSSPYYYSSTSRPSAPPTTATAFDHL
structure (smiles),measurement,setting,value
Cc1nn(-c2ccccc2)c(Cl)c1C1C(C#N)=C(N)Oc2c1c(=O)oc1ccccc21 (stereo unspecified),EC50,Streptococcus,0.344 µM (active)
same,EC50,[1],0.197 µM (active)
COc1ccccc1NC(=O)/C=C1\SCC(=O)N1C,EC50,[2],0.949 µM (active)
same,EC50,[3],> 60 µM (not active)
CC1CCCN(CCCOc2ccc(Cl)cc2Br)C1 (stereo unspecified),EC50,[4],> 195 µM (not active)
CC1CCN(S(=O)(=O)c2ccc(NC(=O)CN3CCN(C)CC3)cc2)CC1,EC50,[2],0.738 µM (active)
same,EC50,[3],> 60 µM (not active)
CCOc1ccc(NC(=O)C2CCCN(c3nn4c(=O)cc(C)nc4s3)C2)cc1 (stereo unspecified),EC50,[4],> 195 µM (not active)
O=C(C1CCCN(S(=O)(=O)c2cccc3nsnc23)C1)N1CC=C(c2ccccc2)CC1 (stereo unspecified),AC50,Cytochrome P450 2D6,5.01 µM (inconclusive)
same,AC50,Cytochrome P450 1A2,14.1 µM (inconclusive)
COc1ccc(NC(=O)c2ccc([N+](=O)[O-])cc2[N+](=O)[O-])c(OC)c1,EC50,[2],1.16 µM (active)
same,EC50,[3],> 30 µM (not active)
COc1ccccc1-c1cc(NCc2cccc(C)c2)ncn1,AC50,Cytochrome P450 2D6,20 µM (inconclusive)
c1ccc2c(NC3CCNCC3)nc(-c3ccoc3)nc2c1,AC50,Cytochrome P450 2D6,7.94 µM (inconclusive)
Cc1nc2cnc(Oc3ccccc3)nc2n(Cc2cccs2)c1=O,AC50,Cytochrome P450 2D6,31.6 µM (inconclusive)
O=S(=O)(c1ccc(Cl)s1)N1CCc2ccccc2C1,AC50,Cytochrome P450 2D6,31.6 µM (inconclusive)
same,AC50,Cytochrome P450 1A2,25.1 µM (inconclusive)
O=C(O)CCN1C(=S)CSC1=S,AC50,Cytochrome P450 1A2,5.01 µM (inconclusive)
Cc1ccc(NC(=O)/C(=C\c2ccc3c(c2)OCO3)NC(=O)c2ccco2)cc1,AC50,Cytochrome P450 2D6,15.8 µM (inconclusive)
same,AC50,Cytochrome P450 1A2,11.2 µM (inconclusive)
O=C(CN1C(=O)C2C3C=CC(C3)C2C1=O)OCC(=O)c1ccc(Br)cc1 (stereo unspecified),EC50,[4],> 195 µM (not active)
Cc1ccc(CN2CCN(Cc3ccccc3)CC2)cc1,EC50,[2],0.143 µM (active)
same,EC50,[3],> 60 µM (not active)
CCOC(=O)C1CCN(c2c(NCc3ccc(C(=O)Nc4ccc(C)cc4)cc3)c(=O)c2=O)CC1,EC50,[4],> 195 µM (not active)
O=C(O)c1cccc(NC(=S)NC(=O)c2ccc3ccccc3c2)c1,EC50,[4],20.6 µM (active)
COc1cccc(-n2ccnc2SCC(=O)Nc2ccccc2F)c1,EC50,[4],> 195 µM (not active)
CCOc1ccc(N(CC(=O)NCc2ccc(C)cc2)S(=O)(=O)c2c(C)nc(O)nc2O)cc1,EC50,Streptokinase A,> 150 µM (not active)
same,EC50,Streptococcus,> 150 µM (not active)
same,EC50,[1],> 150 µM (not active)
COc1ccc(-c2ncn(CCC#N)c2[N+](=O)[O-])cc1,EC50,Streptokinase A,> 150 µM (not active)
same,EC50,Streptococcus,5.92 µM (active)
same,EC50,[1],3.52 µM (active)
CSCC[C@H](NC(=O)N1CCn2c1nc1ccccc12)C(=O)NC1CC1,EC50,[4],> 195 µM (not active)
O=C(c1cnccn1)N1CCC2(CCCN(Cc3ccccc3)C2)CC1,AC50,Cytochrome P450 2D6,7.94 µM (inconclusive)
CCN1CCN(CCOc2ccc(Cl)cc2)CC1,EC50,[2],0.176 µM (active)
same,EC50,[3],> 30 µM (not active)
O=S(=O)(NCc1ccccn1)c1ccc(F)cc1,EC50,[4],> 195 µM (not active)
O=C(NCCCn1ccnc1)c1nn2c(C(F)(F)F)cc(-c3ccccc3)nc2c1Cl,EC50,Streptokinase A,> 150 µM (not active)
same,EC50,Streptococcus,> 150 µM (not active)
same,EC50,[1],> 150 µM (not active)
Cc1noc(C)c1COc1ccc(C(=O)OCC(=O)Nc2c(C)n(C)n(-c3ccccc3)c2=O)cc1,EC50,[4],> 195 µM (not active)
O=C(CSc1nc(Nc2ccccc2)nc(N2CCOCC2)n1)Nc1ccc([N+](=O)[O-])cc1,EC50,[2],2.18 µM (active)
same,EC50,[3],> 60 µM (not active)
COC(=O)c1ccc(N2CCC(c3cc(-c4ccc(OC)cc4)[nH]n3)CC2)c([N+](=O)[O-])c1,EC50,Streptococcus,44.2 µM (active)
same,EC50,[1],3.87 µM (active)
Cc1nc2cc(-c3ccccc3)nn2c(C)c1CCC(=O)NC(C)c1ccc2c(c1)OCCO2 (stereo unspecified),EC50,[4],> 195 µM (not active)
CCCn1c(=O)n(C)c(=O)c2c(SCC(=O)NC34CC5CC(CC(C5)C3)C4)nc(CC(C)C)nc21,EC50,[2],> 60 µM (not active)
same,EC50,[3],> 60 µM (not active)
CCCc1nnc(NC(=O)CCC(=O)N2CCN(S(=O)(=O)c3ccc(F)cc3)CC2)s1,EC50,[4],> 195 µM (not active)
COc1cc(CNCc2cccs2)ccc1OCC(N)=O,AC50,Cytochrome P450 1A2,39.8 µM (inconclusive)
O=C(Nc1ccc(Br)cc1)C1CCC(=O)N1Cc1ccccc1Cl (stereo unspecified),AC50,Cytochrome P450 1A2,14.1 µM (inconclusive)
Cc1nc(Nc2ccc3c(c2)OCCO3)c2nnn(Cc3ccccc3Cl)c2n1,EC50,[2],2.74 µM (active)
same,EC50,[4],3.43 µM (active)
same,EC50,[3],> 60 µM (not active)
O=C1NC(=O)N(Cc2ccccc2)C(=O)/C1=C/NCCN1CCNCC1,EC50,[4],> 195 µM (not active)
O=C(Cn1cnc2cc([N+](=O)[O-])ccc2c1=O)Nc1ccc2c(c1)CCC2,EC50,[2],0.5 µM (active)
same,EC50,[3],> 60 µM (not active)
O=C(Nc1ccc(S(=O)(=O)N2CCc3ccccc32)cc1)c1ccc2c(c1)OCO2,EC50,[2],3.4 µM (active)
same,EC50,[3],> 60 µM (not active)
Cc1ccc2oc(=O)cc(CN3CCN(C/C=C/c4ccccc4)CC3)c2c1,EC50,[2],0.293 µM (active)
same,EC50,[3],> 60 µM (not active)
Cc1ccccc1NC(=O)CN1CCC(n2nnc3ccccc32)CC1,AC50,Cytochrome P450 2D6,0.01 µM (inconclusive)
Oc1ccccc1/C=N/NC(=S)NC1CC2C=CC1C2 (stereo unspecified),EC50,Streptokinase A,> 16 µM (not active)
same,EC50,Streptococcus,> 16 µM (not active)
same,EC50,[1],5.04 µM (active)
C[C@@H]1CCCCO[C@@H](CN(C)S(=O)(=O)c2ccc(Cl)cc2)[C@H](C)CN([C@@H](C)CO)C(=O)c2cc(NS(=O)(=O)c3ccc(Cl)cc3)ccc2O1,AC50,Paired box protein Pax-8,2.78 µM (active)
COC(=O)[C@@]12C[C@@H](CC(=O)N3CCN(C(=O)c4ccco4)CC3)C(=O)N(Cc3ccco3)C1=CCC(C)(C)C2,AC50,Paired box protein Pax-8,2.44 µM (active)
Cc1noc(C)c1NC(=O)Nc1cccc2c1O[C@H](CN(C)Cc1ccc(C(F)(F)F)cc1)[C@H](C)CN([C@@H](C)CO)C2=O,AC50,Paired box protein Pax-8,27.5 µM (active)
C[C@H]1CCCCO[C@@H](CN(C)Cc2ccc(C(F)(F)F)cc2)[C@@H](C)CN([C@@H](C)CO)C(=O)c2cc(NS(=O)(=O)c3cccs3)ccc2O1,AC50,Paired box protein Pax-8,7.2 µM (active)
Cc1ccc(OCc2nnc(SC(C)C(=O)O)n2-c2ccccc2)cc1 (stereo unspecified),EC50,[4],> 195 µM (not active)
CC(C)/C(=N/Nc1ccccc1[N+](=O)[O-])c1ccccc1,EC50,Streptokinase A,18.4 µM (active)
same,EC50,Streptococcus,52.5 µM (active)
same,EC50,[1],6.63 µM (active)
O=C(N/N=C/c1ccc(F)cc1)c1ccc(OCc2ccccc2)cc1,EC50,[4],> 195 µM (not active)
CCCCCCn1c(=O)c(C(=O)N/N=C/c2cccc(F)c2)c(O)c2ccccc21,EC50,Streptococcus,16.1 µM (active)
same,EC50,[1],11.6 µM (active)
CN(C)C(=O)c1ccc(-c2cncnc2NCc2ccccc2)cc1,AC50,Cytochrome P450 1A2,20 µM (inconclusive)
COCC1=C(C(=O)OC(C)OC(=O)OC(C)C)N2C(=O)[C@@H](NC(=O)/C(=N\OC)c3csc(N)n3)[C@H]2SC1 (stereo partly specified) [CEFPODOXIME PROXETIL],EC50,Streptococcus,0.987 µM (active)
same,EC50,[1],0.697 µM (active)
O=C1c2ccccc2S(=O)(=O)N1CCCCN1CCN(c2ncccn2)CC1 [IPSAPIRONE],AC50,Cytochrome P450 2D6,20 µM (inconclusive)
same,AC50,Cytochrome P450 1A2,31.6 µM (inconclusive)
